This passage reports Ki and EC50 results from patent US9994581B2, “Bromodomain inhibitors” (AbbVie Inc., priority 2013, dated 2018).

SMILES strings stand for the structures.

In assay [1] the target is BRD4 (BDI-BDII_K57-K550) (Homo sapiens, UniProt O60885). In words: TR-FRET bromodomain binding assay. Particulars: His-tagged tandem bromodomain, Alexa647-labeled probe; Ki calculated from IC50s, probe Kd and probe concentration. On the procedure:
A time-resolved fluorescence resonance energy transfer (TR-FRET) assay was used to determine the affinities of compounds of the Examples listed in Table 1 for the tandem domain of bromodomain BRD4. […] An Alexa647-labeled BET-inhibitor was used as the fluorescent probe in the assay.
TR-FRET data were normalized to the means of 24 no-compound controls (“high”) and 8 controls containing 1 μM un-labeled probe (“low”). Percent inhibition was plotted as a function of compound concentration and the data were fit with the 4 parameter logistic equation to obtain IC50s. Inhibition constants (Ki) were calculated from the IC50s, probe Kd and probe concentration. Typical Z′ values were between 0.65 and 0.75.

Assay [2] has as its system breast cancer cell line MX-1. In words: MX-1 cell line proliferation assay (3-day, Cell Titer Glo). The conditions noted are these: Homo sapiens, MX1, MX-1 cells, 72 hours, read-out: Cellular proliferation: EC50. The assay is classed as cell-based. The method, then:
The impact of compounds of the Examples on cancer cell proliferation was determined using the breast cancer cell line MX-1 (ATCC) in a 3-day proliferation assay and the data are reported in Table 1. […] For compound testing, MX-1 cells were plated in 96-well black bottom plates at a density of 5000 cells/well in 90 μL of culture media and incubated at 37° overnight to allow cell adhesion and spreading. Compound dilution series were prepared in DMSO via a 3-fold serial dilution from 3 mM to 0.1 μM. The DMSO dilution series were then diluted 1:100 in phosphate buffered saline, and 10 μL of the resulted solution were added to the appropriate wells of the MX-1 cell plate. The final compound concentrations in the wells were 3, 1, 0.3, 0.1, 0.03, 0.01, 0.003, 0.001, 0.0003, and 0.0001 μM, or 1, 0.3, 0.1, 0.03, 0.01, 0.003, 0.001, 0.0003, 0.0001, and 0.00003 μM.
Luminescence readings from the Cell Titer Glo assay were normalized to the DMSO treated cells and analyzed using the GraphPad Prism software with sigmoidal curve fitting to obtain EC50s.
For orientation: Cellular ATP, detected with luciferase, serves as a proxy for viable cell number.

Usually Ki stands for a dissociation constant, usually derived from enzyme kinetics or from competition with a known ligand. In the case of `CCS(=O)(=O)Nc1ccc2c(c1)-c1nn(C)c(=O)cc1OCCCCc1cc(Cl)ccc1O2` [Example A-55, N-(11-chloro-2-methyl-3-oxo-2,3,6,7,8,9-hexahydrodibenzo[4,5:7,8][1,6]dioxacyclododecino[3,2-c]pyridazin-17-yl)ethanesulfonamide], in assay [1], the Ki is 2.91 nM. The EC50 in assay [2] amounted to 14.2 nM.
On the same counts, the results for `CCS(=O)(=O)Nc1ccc2c(c1)-c1nn(C)c(=O)cc1OCCCCc1cc(C#N)ccc1O2` [Example A-56, N-(11-cyano-2-methyl-3-oxo-2,3,6,7,8,9-hexahydrodibenzo[4,5:7,8][1,6]dioxacyclododecino[3,2-c]pyridazin-17-yl)ethanesulfonamide] are 3.99 nM and 16.9 nM.
Regarding `CCS(=O)(=O)c1ccc2c(c1)-c1nn(C)c(=O)cc1OCCCCc1cc(F)cc(F)c1O2` [Example A-57, 17-(ethylsulfonyl)-11,13-difluoro-2-methyl-6,7,8,9-tetrahydrodibenzo[4,5:7,8][1,6]dioxacyclododecino[3,2-c]pyridazin-3(2H)-one], in assay [1], the Ki is 8.44 nM. Besides, the EC50 in assay [2] came to 53.1 nM.
For `CCS(=O)(=O)Nc1ccc2c(c1)-c1nn(C)c(=O)cc1OCCCCc1cc(F)cc(F)c1O2` [Example A-58, N-(11,13-difluoro-2-methyl-3-oxo-2,3,6,7,8,9-hexahydrodibenzo[4,5:7,8][1,6]dioxacyclododecino[3,2-c]pyridazin-17-yl)ethanesulfonamide], the Ki in assay [1] was 2.01 nM. For the same compound, the EC50 in assay [2] was 18.4 nM.
For the compound `CCS(=O)(=O)c1ccc2c(c1)-c1nn(C)c(=O)cc1OCCCCc1ccncc1O2` [Example A-59, 17-(ethylsulfonyl)-2-methyl-6,7,8,9-tetrahydrobenzo[4,5]pyrido[3′,4′:7,8][1,6]dioxacyclododecino[3,2-c]pyridazin-3(2H)-one], the Ki in assay [1] is 24.2 nM. For the same compound, in assay [2], the EC50 was 111 nM.
On the same counts, the results for `CCS(=O)(=O)c1ccc2c(c1)-c1cn(C)c(=O)cc1OCCCCc1cccc(C)c1O2` [Example A-60, 17-(ethylsulfonyl)-2,13-dimethyl-6,7,8,9-tetrahydrodibenzo[4,5:7,8][1,6]dioxacyclododecino[3,2-c]pyridin-3(2H)-one] are 5.8 nM and 1.16 nM.
For the compound `CC(=O)Nc1ccc2c(c1)-c1cn(C)c(=O)cc1OCCN(C(C)=O)Cc1cc(Cl)ccc1O2` [Example B-2, N-(8-acetyl-11-chloro-2-methyl-3-oxo-2,3,6,7,8,9-hexahydrodibenzo[f,i]pyrido[3,4-k][1,8,4]dioxazacyclododecin-17-yl)acetamide], the Ki in assay [1] was 15.6 nM. Besides, the EC50 in assay [2] turned out to be 142 nM.
On the same counts, the results for `Cn1cc2c(cc1=O)OCCNC(=O)c1cc(Cl)ccc1Oc1ccc(N)cc1-2` [Example B-3, 17-amino-11-chloro-2-methyl-7,8-dihydrodibenzo[f,i]pyrido[3,4-k][1,8,4]dioxazacyclododecine-3,9(2H,6H)-dione] are 172 nM and greater than 1000 nM.
On the same counts, the results for `CCS(=O)(=O)Nc1ccc2c(c1)-c1cn(C)c(=O)cc1OCCNC(=O)c1cc(Cl)ccc1O2` [Example B-4, N-(11-chloro-2-methyl-3,9-dioxo-2,3,6,7,8,9-hexahydrodibenzo[f,i]pyrido[3,4-k][1,8,4]dioxazacyclododecin-17-yl)ethanesulfonamide] are 10.5 nM and 257 nM.
On the same counts, the results for `CCS(=O)(=O)Nc1ccc2c(c1)-c1cn(C)c(=O)cc1OCCN(S(C)(=O)=O)Cc1cc(Cl)ccc1O2` [Example B-6, N-[11-chloro-2-methyl-8-(methylsulfonyl)-3-oxo-2,3,6,7,8,9-hexahydrodibenzo[f,i]pyrido[3,4-k][1,8,4]dioxazacyclododecin-17-yl]ethanesulfonamide] are 1.57 nM and 17.1 nM.
On to `CCS(=O)(=O)Nc1ccc2c(c1)-c1cn(C)c(=O)cc1OCCN(C(C)=O)Cc1cc(Cl)ccc1O2` [Example B-7, N-(8-acetyl-11-chloro-2-methyl-3-oxo-2,3,6,7,8,9-hexahydrodibenzo[f,i]pyrido[3,4-k][1,8,4]dioxazacyclododecin-17-yl)ethanesulfonamide], for which the Ki in assay [1] was 1.61 nM. In addition, the EC50 in assay [2] is 45.4 nM.
Take `CCOC(=O)N1CCOc2cc(=O)n(C)cc2-c2cc(NS(=O)(=O)CC)ccc2Oc2ccc(Cl)cc2C1` [Example B-8, ethyl 11-chloro-17-[(ethylsulfonyl)amino]-2-methyl-3-oxo-2,3,6,7-tetrahydrodibenzo[f,i]pyrido[3,4-k][1,8,4]dioxazacyclododecine-8(9H)-carboxylate]: the Ki in assay [1] is 0.97 nM. In addition, the EC50 in assay [2] turned out to be 17 nM.
As for `CCNC(=O)N1CCOc2cc(=O)n(C)cc2-c2cc(NS(=O)(=O)CC)ccc2Oc2ccc(Cl)cc2C1` [Example B-9, 11-chloro-N-ethyl-17-[(ethylsulfonyl)amino]-2-methyl-3-oxo-2,3,6,7-tetrahydrodibenzo[f,i]pyrido[3,4-k][1,8,4]dioxazacyclododecine-8(9H)-carboxamide], the Ki in assay [1] is 0.64 nM. In addition, in assay [2], the EC50 came to 47.3 nM.
Turning to `CCS(=O)(=O)Nc1ccc2c(c1)-c1cn(C)c(=O)cc1OCCN(C(=O)OC(C)(C)C)Cc1cc(Cl)ccc1O2` [Example B-10, tert-butyl 11-chloro-17-[(ethylsulfonyl)amino]-2-methyl-3-oxo-2,3,6,7-tetrahydrodibenzo[f,i]pyrido[3,4-k][1,8,4]dioxazacyclododecine-8(9H)-carboxylate], the Ki in assay [1] was 1.24 nM. In assay [2], the EC50 was found to be 29.7 nM.
On the same counts, the results for `CCS(=O)(=O)Nc1ccc2c(c1)-c1cn(C)c(=O)cc1OCCNCc1cc(Cl)ccc1O2` [Example B-11, N-(11-chloro-2-methyl-3-oxo-2,3,6,7,8,9-hexahydrodibenzo[f,i]pyrido[3,4-k][1,8,4]dioxazacyclododecin-17-yl)ethanesulfonamide] are 9.45 nM and 25.1 nM.
The like results for `CCS(=O)(=O)Nc1ccc2c(c1)-c1cn(C)c(=O)cc1OCCN(CC1CC1)Cc1cc(Cl)ccc1O2` [Example B-12, N-[11-chloro-8-(cyclopropylmethyl)-2-methyl-3-oxo-2,3,6,7,8,9-hexahydrodibenzo[f,i]pyrido[3,4-k][1,8,4]dioxazacyclododecin-17-yl]ethanesulfonamide] were, in that order, 5.1 nM and 8.01 nM.
On to `CCS(=O)(=O)Nc1ccc2c(c1)-c1cn(C)c(=O)cc1OCCN(CCC(F)(F)F)Cc1cc(Cl)ccc1O2` [Example B-13, N-[11-chloro-2-methyl-3-oxo-8-(3,3,3-trifluoropropyl)-2,3,6,7,8,9-hexahydrodibenzo[f,i]pyrido[3,4-k][1,8,4]dioxazacyclododecin-17-yl]ethanesulfonamide], for which the Ki in assay [1] is 2.22 nM. Moreover, the EC50 in assay [2] was 16.8 nM.
Turning to `CCS(=O)(=O)Nc1ccc2c(c1)-c1cn(C)c(=O)cc1OCCN(C1CCC1)Cc1cc(Cl)ccc1O2` [Example B-14, N-(11-chloro-8-cyclobutyl-2-methyl-3-oxo-2,3,6,7,8,9-hexahydrodibenzo[f,i]pyrido[3,4-k][1,8,4]dioxazacyclododecin-17-yl)ethanesulfonamide], the Ki in assay [1] was 2.14 nM. The EC50 in assay [2] came out at 5.95 nM.
On the same counts, the results for `CCOC(=O)NS(=O)(=O)N1CCOc2cc(=O)n(C)cc2-c2cc(NS(=O)(=O)CC)ccc2Oc2ccc(Cl)cc2C1` [Example B-15, ethyl ({11-chloro-17-[(ethylsulfonyl)amino]-2-methyl-3-oxo-2,3,6,7-tetrahydrodibenzo[f,i]pyrido[3,4-k][1,8,4]dioxazacyclododecin-8(9H)-yl}sulfonyl)carbamate] are 1 nM and 153 nM.
On the same counts, the results for `CCS(=O)(=O)Nc1ccc2c(c1)-c1cn(C)c(=O)cc1OCCN(S(=O)(=O)NC(C)=O)Cc1cc(Cl)ccc1O2` [Example B-16, N-({11-chloro-17-[(ethylsulfonyl)amino]-2-methyl-3-oxo-2,3,6,7-tetrahydrodibenzo[f,i]pyrido[3,4-k][1,8,4]dioxazacyclododecin-8(9H)-yl}sulfonyl)acetamide] are 1.28 nM and greater than 1000 nM.
On the same counts, the results for `Cn1cc2c(cc1=O)OCCOCc1cc(Cl)ccc1Oc1ccc(CS(C)(=O)=O)cc1-2` [Example B-17, 11-chloro-2-methyl-17-((methylsulfonyl)methyl)-6,7-dihydro-2H-dibenzo[6,7:9,10][1,4,8]trioxacyclododecino[11,12-c]pyridin-3(9H)-one] are 7.7 nM and 30.9 nM.
Turning to `CCOC(=O)c1ccc2c(c1)-c1cn(C)c(=O)cc1OCCOCc1cc(Cl)ccc1O2` [Example B-17c, ethyl 11-chloro-2-methyl-3-oxo-3,6,7,9-tetrahydro-2H-dibenzo[6,7:9,10][1,4,8]trioxacyclododecino[11,12-c]pyridine-17-carboxylate], the Ki in assay [1] was 10.7 nM. Also, the EC50 in assay [2] was determined as 6.7 nM.
